Results: PubChem BioAssay (NCI)
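Cells were grown in 96-well plates and exposed to each compound for 48 hours at five concentrations; endpoints were interpolated linearly between bracketing concentrations, or set to the highest concentration if not reached. TGI: concentration producing complete growth inhibition.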

Test system: PC-3 prostate
Test: NCI anticancer screen, dose series, 48 h

`COc1ccc(N2C(=O)C3ON(C(C(N)=O)c4ccccc4)C(c4cc5ccccc5c5ccccc45)C3C2=O)cc1` (stereo not given) and `COc1ccccc1N1CCN(CCCN2/C(=C(\O)c3ccccc3)C(=O)c3c(C)cc(C)nc3S2(=O)=O)CC1` cannot be ordered by TGI: over 50 µM for the first, over 100 µM for the second.

`O=C1N[C@@H](c2c[nH]c3cc(Br)ccc23)C(=O)N[C@H]1c1c[nH]c2cc(Br)ccc12` and `COc1ccc(C2=Nn3c(nnc(Cc4ccc(Cl)cc4)c3=O)SC2)cc1` cannot be ordered by TGI: over 100 µM for the first, over 100 µM for the second.

`CCn1c(SCC(=O)NNC(=S)Nc2ccc(C)cc2)nc2ccccc2c1=O` and `NC(=S)Nc1ccc(S(=O)(=O)Nc2ccc(S(N)(=O)=O)cc2)cc1` cannot be ordered by TGI: over 100 µM for the first, over 100 µM for the second.

`COC1(OC)CC(CO)(CNc2nc(N)nc(Cl)c2/C=N\O)C1` and `COC(=O)CCc1cc(O)c2c(c1)C(C(=O)OC)C(c1ccc(O)c(O)c1)O2` (stereo not given) cannot be ordered by TGI: over 100 µM for the first, over 100 µM for the second.

Compared with `Cc1ccc(/C=C2\CCC/C(=C\c3ccc(O)c(CN4CCCCC4)c3)C2=O)cc1`, `Cc1ccc2c(c1)C1(C)OC(C=CC1=O)O2` (stereo not given) is lower in TGI: over 47.5 µM for the first, 3.81 µM for the second.

Test system: LOX IMVI melanoma
Test: NCI anticancer screen, dose series, 48 h

Going from `COc1ccc(N2C(=O)C3ON(C(C(N)=O)c4ccccc4)C(c4cc5ccccc5c5ccccc45)C3C2=O)cc1` (stereo not given) to `COc1ccccc1N1CCN(CCCN2/C(=C(\O)c3ccccc3)C(=O)c3c(C)cc(C)nc3S2(=O)=O)CC1`, the TGI falls from over 50 µM to 50 µM.

`O=C1N[C@@H](c2c[nH]c3cc(Br)ccc23)C(=O)N[C@H]1c1c[nH]c2cc(Br)ccc12` and `COc1ccc(C2=Nn3c(nnc(Cc4ccc(Cl)cc4)c3=O)SC2)cc1` cannot be ordered by TGI: over 100 µM for the first, over 100 µM for the second.

`CCn1c(SCC(=O)NNC(=S)Nc2ccc(C)cc2)nc2ccccc2c1=O` and `NC(=S)Nc1ccc(S(=O)(=O)Nc2ccc(S(N)(=O)=O)cc2)cc1` cannot be ordered by TGI: over 100 µM for the first, over 100 µM for the second.

`COC1(OC)CC(CO)(CNc2nc(N)nc(Cl)c2/C=N\O)C1` and `COC(=O)CCc1cc(O)c2c(c1)C(C(=O)OC)C(c1ccc(O)c(O)c1)O2` (stereo not given) cannot be ordered by TGI: over 100 µM for the first, over 100 µM for the second.

First: Cc1ccc(/C=C2\CCC/C(=C\c3ccc(O)c(CN4CCCCC4)c3)C2=O)cc1
Second: Cc1ccc2c(c1)C1(C)OC(C=CC1=O)O2 (stereo not given)
The TGI of the first is 7.9-fold higher: 10.3 µM for the first, 1.31 µM for the second.

Test system: HOP-62 NSCLC
Test: NCI anticancer screen, dose series, 48 h

`COc1ccc(N2C(=O)C3ON(C(C(N)=O)c4ccccc4)C(c4cc5ccccc5c5ccccc45)C3C2=O)cc1` (stereo not given) and `COc1ccccc1N1CCN(CCCN2/C(=C(\O)c3ccccc3)C(=O)c3c(C)cc(C)nc3S2(=O)=O)CC1` cannot be ordered by TGI: over 50 µM for the first, over 100 µM for the second.

`O=C1N[C@@H](c2c[nH]c3cc(Br)ccc23)C(=O)N[C@H]1c1c[nH]c2cc(Br)ccc12` and `COc1ccc(C2=Nn3c(nnc(Cc4ccc(Cl)cc4)c3=O)SC2)cc1` cannot be ordered by TGI: over 100 µM for the first, over 100 µM for the second.

`CCn1c(SCC(=O)NNC(=S)Nc2ccc(C)cc2)nc2ccccc2c1=O` and `NC(=S)Nc1ccc(S(=O)(=O)Nc2ccc(S(N)(=O)=O)cc2)cc1` cannot be ordered by TGI: over 100 µM for the first, over 100 µM for the second.

`COC1(OC)CC(CO)(CNc2nc(N)nc(Cl)c2/C=N\O)C1` and `COC(=O)CCc1cc(O)c2c(c1)C(C(=O)OC)C(c1ccc(O)c(O)c1)O2` (stereo not given) cannot be ordered by TGI: over 100 µM for the first, over 100 µM for the second.

Going from `Cc1ccc(/C=C2\CCC/C(=C\c3ccc(O)c(CN4CCCCC4)c3)C2=O)cc1` to `Cc1ccc2c(c1)C1(C)OC(C=CC1=O)O2` (stereo not given), the TGI falls from over 51.7 µM to 12.2 µM.

Test system: MDA-MB-435
Test: NCI anticancer screen, dose series, 48 h

`COc1ccc(N2C(=O)C3ON(C(C(N)=O)c4ccccc4)C(c4cc5ccccc5c5ccccc45)C3C2=O)cc1` (stereo not given) and `COc1ccccc1N1CCN(CCCN2/C(=C(\O)c3ccccc3)C(=O)c3c(C)cc(C)nc3S2(=O)=O)CC1` cannot be ordered by TGI: over 50 µM for the first, over 100 µM for the second.

Compared with `O=C1N[C@@H](c2c[nH]c3cc(Br)ccc23)C(=O)N[C@H]1c1c[nH]c2cc(Br)ccc12`, `COc1ccc(C2=Nn3c(nnc(Cc4ccc(Cl)cc4)c3=O)SC2)cc1` is lower in TGI: over 100 µM for the first, 33.4 µM for the second.

`CCn1c(SCC(=O)NNC(=S)Nc2ccc(C)cc2)nc2ccccc2c1=O` and `NC(=S)Nc1ccc(S(=O)(=O)Nc2ccc(S(N)(=O)=O)cc2)cc1` cannot be ordered by TGI: over 100 µM for the first, over 100 µM for the second.

Going from `COC1(OC)CC(CO)(CNc2nc(N)nc(Cl)c2/C=N\O)C1` to `COC(=O)CCc1cc(O)c2c(c1)C(C(=O)OC)C(c1ccc(O)c(O)c1)O2` (stereo not given), the TGI falls from over 100 µM to 4.67 µM.

First: Cc1ccc(/C=C2\CCC/C(=C\c3ccc(O)c(CN4CCCCC4)c3)C2=O)cc1
Second: Cc1ccc2c(c1)C1(C)OC(C=CC1=O)O2 (stereo not given)
The TGI of the first is 80-fold higher: 25.5 µM for the first, 0.317 µM for the second.

Test system: OVCAR-4 ovarian
Test: NCI anticancer screen, dose series, 48 h

`COc1ccc(N2C(=O)C3ON(C(C(N)=O)c4ccccc4)C(c4cc5ccccc5c5ccccc45)C3C2=O)cc1` (stereo not given) and `COc1ccccc1N1CCN(CCCN2/C(=C(\O)c3ccccc3)C(=O)c3c(C)cc(C)nc3S2(=O)=O)CC1` cannot be ordered by TGI: over 50 µM for the first, over 100 µM for the second.

`O=C1N[C@@H](c2c[nH]c3cc(Br)ccc23)C(=O)N[C@H]1c1c[nH]c2cc(Br)ccc12` and `COc1ccc(C2=Nn3c(nnc(Cc4ccc(Cl)cc4)c3=O)SC2)cc1` cannot be ordered by TGI: over 100 µM for the first, over 100 µM for the second.

`CCn1c(SCC(=O)NNC(=S)Nc2ccc(C)cc2)nc2ccccc2c1=O` and `NC(=S)Nc1ccc(S(=O)(=O)Nc2ccc(S(N)(=O)=O)cc2)cc1` cannot be ordered by TGI: over 100 µM for the first, over 100 µM for the second.

`COC1(OC)CC(CO)(CNc2nc(N)nc(Cl)c2/C=N\O)C1` and `COC(=O)CCc1cc(O)c2c(c1)C(C(=O)OC)C(c1ccc(O)c(O)c1)O2` (stereo not given) cannot be ordered by TGI: over 100 µM for the first, over 100 µM for the second.

Going from `Cc1ccc(/C=C2\CCC/C(=C\c3ccc(O)c(CN4CCCCC4)c3)C2=O)cc1` to `Cc1ccc2c(c1)C1(C)OC(C=CC1=O)O2` (stereo not given), the TGI falls from 33 µM to 2.29 µM (14-fold).
